The target in assay [1] is T1, Sigma^70 saturated E. coli RNA Polymerase (Escherichia coli, UniProt P0A8T7+P0A8V2).
T1 construct: purchased Epicenter
The assay is described as follows: RNA polymerase inhibition assay (E. coli enzyme). The class given is biochemical. The following applies: Table 1; enzyme not named, method uses E. coli RNA polymerase; read-out: IC50. The procedure: The compounds of the present invention can be evaluated for antibacterial activity in a variety of assay formats known to those of skill in art. The specific assays used to select the most appropriate compound for use will typically depend on the targeted bacteria or infection. One common assay involves evaluation of the compounds as RNA polymerase inhibitors. In this assay, buffer (250 mM KCl, 5% Glycerol, 10 mM MgCl2, 0.1 mg/ml BSA) is combined with 6 mM B-M.E., PT5 DNA template, and 1.3 ug/rxn Sigma^70 saturated E. coli RNA Polymerase (Epicenter). The compound is then added in a manner not to exceed 5% DMSO. Nucleotide triphosphates are then added at the following concentration: 250 uM ATP, […] and UTP with 100 uM cold CTP and 50 uM alpha ^32P CTP. The mixture is incubated for 10 min at about 37° C. A [2×] loading buffer is added and the mixture is then run on a 6% urea denaturing PAGE until bromophenol blue reaches the edge of plate. The gel is soaked (about 20 minutes in 10% MeOH and 10% acetic acid, to remove urea), then dried (about 55 minutes at about 85° C. (BioRad Gel Drier)) and exposed to a Phospho Imaging Plate for 1 hour. The plate is then read on a Fujix Bas1000 Imaging System and quantified using MacBas v2.0 software. An IC50 (in uM) can be calculated as the concentration of a drug which reduces the enzyme activity to 50% of the control.

Another assay has as its system B. su. As to the kind of experiment: MIC determination, B. su. It counts as cell-based. To be noted: Table 1, 16 hours at 37° C. in LB medium, read-out: B. su (bacterial MIC). The procedure: (§1) For MIC determinations for selected bacteria, log phase growing bacteria are re-suspended at 1×10^5 bacteria per mL in LB medium. The compound is added and two-fold dilutions are made. The final volume in the 96-well plate is about 100 uL. The plate is incubated at 37° C. in the dark with shaking. After 16 hours of incubation, growth is monitored by reading A600 or by visual inspection. MIC is defined as the minimum concentration of drug resulting in inhibition of visible growth of bacterial under the conditions described (above) in National Committee for Clinical Laboratory Standards 1993. Methods for dilution antimicrobial susceptibility tests for bacteria that grow aerobically. Approved standard M7-A3; National Committee for Clinical Laboratory Standards: Villanova, Pa.

A further assay concerns S. aureus. As to the kind of experiment: MIC determination, S. aureus. The class given is cell-based. To be noted: Staphylococcus aureus; Table 1; MIC, 16 hours at 37° C. in LB medium; read-out: S. au (bacterial MIC). As for the experimental part: The compound is added and two-fold dilutions are made. The final volume in the 96-well plate is about 100 uL. The plate is incubated at 37° C. in the dark with shaking. After 16 hours of incubation, growth is monitored by reading A600 or by visual inspection. […] Methods for dilution antimicrobial susceptibility tests for bacteria that grow aerobically. Approved standard M7-A3; National Committee for Clinical Laboratory Standards: Villanova, Pa.

The next assay has as its system E. coli (tolC). As to the kind of experiment: MIC determination, E. coli (tolC). The class given is cell-based. To be noted: Escherichia coli, 16 h, read-out: E. c(tolC) (bacterial MIC). The procedure:
as §1

12 molecules from patent US7053234B2 (Amgen Inc., priority 2000, dated 2006) can be followed below.

In brackets after ≈: the same amount, converted by molar mass.

T1 sequence (P0A8V2 whole entry): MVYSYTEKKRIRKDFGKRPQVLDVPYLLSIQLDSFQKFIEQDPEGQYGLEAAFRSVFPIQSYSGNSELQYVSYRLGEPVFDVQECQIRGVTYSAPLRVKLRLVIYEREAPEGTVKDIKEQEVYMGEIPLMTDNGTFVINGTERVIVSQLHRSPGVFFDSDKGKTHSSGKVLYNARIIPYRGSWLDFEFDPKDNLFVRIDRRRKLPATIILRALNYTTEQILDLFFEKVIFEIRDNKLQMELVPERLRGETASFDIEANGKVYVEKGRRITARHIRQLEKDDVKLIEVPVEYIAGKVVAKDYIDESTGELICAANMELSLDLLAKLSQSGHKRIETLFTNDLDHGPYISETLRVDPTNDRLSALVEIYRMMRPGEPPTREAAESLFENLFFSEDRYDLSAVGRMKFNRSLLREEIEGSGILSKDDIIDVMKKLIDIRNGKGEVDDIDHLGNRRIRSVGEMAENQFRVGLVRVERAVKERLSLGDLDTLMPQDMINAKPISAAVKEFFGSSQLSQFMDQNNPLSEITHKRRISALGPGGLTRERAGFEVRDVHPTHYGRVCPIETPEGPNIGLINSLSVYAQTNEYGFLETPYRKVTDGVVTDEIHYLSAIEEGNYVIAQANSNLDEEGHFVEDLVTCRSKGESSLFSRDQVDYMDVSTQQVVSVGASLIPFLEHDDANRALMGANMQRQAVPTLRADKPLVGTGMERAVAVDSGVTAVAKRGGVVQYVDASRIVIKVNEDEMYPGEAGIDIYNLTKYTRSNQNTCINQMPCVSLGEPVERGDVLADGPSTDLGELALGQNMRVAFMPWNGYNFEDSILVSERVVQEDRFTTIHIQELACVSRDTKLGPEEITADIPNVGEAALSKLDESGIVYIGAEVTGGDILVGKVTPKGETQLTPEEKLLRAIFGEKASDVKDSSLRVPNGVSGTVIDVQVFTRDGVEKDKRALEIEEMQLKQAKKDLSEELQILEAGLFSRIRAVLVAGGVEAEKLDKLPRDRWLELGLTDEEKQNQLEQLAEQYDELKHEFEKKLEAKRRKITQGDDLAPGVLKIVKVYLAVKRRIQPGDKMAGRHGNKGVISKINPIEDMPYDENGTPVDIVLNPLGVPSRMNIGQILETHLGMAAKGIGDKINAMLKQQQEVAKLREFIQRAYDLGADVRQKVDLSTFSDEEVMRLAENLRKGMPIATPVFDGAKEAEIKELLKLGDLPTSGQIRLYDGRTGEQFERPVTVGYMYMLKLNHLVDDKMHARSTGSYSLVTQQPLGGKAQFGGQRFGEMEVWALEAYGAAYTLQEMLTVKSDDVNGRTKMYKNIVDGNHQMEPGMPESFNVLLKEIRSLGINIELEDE
T1 sequence (P0A8T7 whole entry): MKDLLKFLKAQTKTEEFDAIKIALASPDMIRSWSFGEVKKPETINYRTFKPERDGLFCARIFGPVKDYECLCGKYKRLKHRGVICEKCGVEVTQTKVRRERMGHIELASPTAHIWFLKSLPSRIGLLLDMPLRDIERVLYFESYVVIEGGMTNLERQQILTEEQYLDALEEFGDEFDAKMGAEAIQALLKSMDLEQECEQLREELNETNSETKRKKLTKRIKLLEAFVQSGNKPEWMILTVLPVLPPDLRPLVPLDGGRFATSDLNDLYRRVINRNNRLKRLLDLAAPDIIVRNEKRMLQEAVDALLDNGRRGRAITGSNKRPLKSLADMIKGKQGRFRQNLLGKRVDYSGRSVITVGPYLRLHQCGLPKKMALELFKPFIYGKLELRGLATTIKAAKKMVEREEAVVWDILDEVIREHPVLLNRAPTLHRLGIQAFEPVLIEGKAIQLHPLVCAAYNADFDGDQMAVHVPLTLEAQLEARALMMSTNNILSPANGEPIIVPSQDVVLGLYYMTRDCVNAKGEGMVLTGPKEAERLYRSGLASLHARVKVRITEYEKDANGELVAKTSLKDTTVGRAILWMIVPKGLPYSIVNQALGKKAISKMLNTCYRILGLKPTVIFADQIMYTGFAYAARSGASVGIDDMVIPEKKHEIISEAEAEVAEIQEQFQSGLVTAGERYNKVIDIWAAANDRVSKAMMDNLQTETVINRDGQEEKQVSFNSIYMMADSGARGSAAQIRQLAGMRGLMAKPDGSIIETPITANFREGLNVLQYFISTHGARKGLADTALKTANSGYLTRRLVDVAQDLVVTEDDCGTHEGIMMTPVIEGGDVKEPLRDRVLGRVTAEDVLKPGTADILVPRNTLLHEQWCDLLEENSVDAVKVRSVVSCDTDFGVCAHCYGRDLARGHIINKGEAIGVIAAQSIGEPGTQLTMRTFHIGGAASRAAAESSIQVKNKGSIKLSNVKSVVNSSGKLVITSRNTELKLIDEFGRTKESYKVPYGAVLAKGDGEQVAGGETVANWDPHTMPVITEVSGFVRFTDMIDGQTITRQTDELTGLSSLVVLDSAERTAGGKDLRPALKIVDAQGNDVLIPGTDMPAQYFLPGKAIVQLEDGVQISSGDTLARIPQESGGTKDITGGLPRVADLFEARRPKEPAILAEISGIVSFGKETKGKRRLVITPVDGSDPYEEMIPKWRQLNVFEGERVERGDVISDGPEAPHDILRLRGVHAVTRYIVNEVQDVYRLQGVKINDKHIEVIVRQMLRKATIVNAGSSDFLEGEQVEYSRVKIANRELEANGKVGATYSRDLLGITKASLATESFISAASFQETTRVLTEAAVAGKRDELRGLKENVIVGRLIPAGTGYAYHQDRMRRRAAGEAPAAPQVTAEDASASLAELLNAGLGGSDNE
T1 sequence (P0A7Z4 whole entry partner): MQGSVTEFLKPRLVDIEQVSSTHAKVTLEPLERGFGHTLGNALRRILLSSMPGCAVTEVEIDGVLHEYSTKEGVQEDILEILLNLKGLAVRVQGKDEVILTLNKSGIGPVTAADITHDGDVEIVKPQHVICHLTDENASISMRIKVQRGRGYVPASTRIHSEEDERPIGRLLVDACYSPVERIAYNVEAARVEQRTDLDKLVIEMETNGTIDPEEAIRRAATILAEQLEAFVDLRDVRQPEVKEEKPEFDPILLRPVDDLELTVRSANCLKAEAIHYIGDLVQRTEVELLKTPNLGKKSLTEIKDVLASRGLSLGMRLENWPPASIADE
T1 sequence (P0A800 whole entry partner): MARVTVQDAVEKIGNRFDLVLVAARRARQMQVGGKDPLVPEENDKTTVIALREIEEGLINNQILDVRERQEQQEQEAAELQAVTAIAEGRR
T1 sequence (P00579 whole entry partner): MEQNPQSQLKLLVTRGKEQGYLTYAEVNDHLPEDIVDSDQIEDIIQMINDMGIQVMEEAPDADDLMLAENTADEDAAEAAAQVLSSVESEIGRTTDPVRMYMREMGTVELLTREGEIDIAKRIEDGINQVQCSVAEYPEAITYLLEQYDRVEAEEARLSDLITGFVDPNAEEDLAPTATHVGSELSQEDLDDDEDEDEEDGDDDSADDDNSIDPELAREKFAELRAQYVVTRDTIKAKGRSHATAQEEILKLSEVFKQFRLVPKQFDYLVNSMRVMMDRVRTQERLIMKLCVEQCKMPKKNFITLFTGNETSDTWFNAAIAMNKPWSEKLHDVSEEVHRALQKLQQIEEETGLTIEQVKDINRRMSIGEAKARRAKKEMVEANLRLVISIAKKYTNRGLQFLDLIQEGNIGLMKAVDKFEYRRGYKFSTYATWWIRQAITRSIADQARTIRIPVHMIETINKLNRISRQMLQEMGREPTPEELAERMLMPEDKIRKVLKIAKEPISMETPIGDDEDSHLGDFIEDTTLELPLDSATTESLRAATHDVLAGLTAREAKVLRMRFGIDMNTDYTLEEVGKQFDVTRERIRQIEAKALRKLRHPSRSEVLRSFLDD

For `O=[N+]([O-])c1cc(C(=NO)Nc2ccccc2)ccc1Cl` [Example 15], the half-maximal inhibitory concentration (IC50) in assay [1] lay within 10 to 50 µM. Besides, the minimal inhibitory concentration (MIC) in the assay with B. su, in the assay on S. aureus and in the assay with E. coli (tolC) was over 125 µM in each case.

For the molecule `ON=C(Nc1cccc(Cl)c1)c1ccc(Cl)cc1` [R′=4-Cl, R″=H, R′″=3-Cl], in assay [1], the 50% inhibitory concentration (IC50) was over 50 µM. In addition, the MIC is 40 to 125 µM (≈ 11.2 to 35.1 µg/mL) in the assay with B. su, 40 to 125 µM (≈ 11.2 to 35.1 µg/mL) with S. aureus and under 40 µM in the assay on E. coli (tolC).

As for `ON=C(Nc1cccc(F)c1)c1ccc(Cl)c(Cl)c1` [R′=3-Cl, R″=4-Cl, R′″=3-F], the half-maximal inhibitory concentration (IC50) in assay [1] was in the range of 10 to 50 µM. Further, the minimal inhibitory concentration (MIC) was 40 to 125 µM (≈ 12 to 37.4 µg/mL) in the assay on B. su, 40 to 125 µM (≈ 12 to 37.4 µg/mL) with S. aureus and under 40 µM with E. coli (tolC).

Regarding `ON=C(Nc1cccc(Oc2ccccc2)c1)c1cccc(C(F)(F)F)c1` [R′=3-CF3, R″=H, R′″=3-OPh], the IC50 in assay [1] is over 50 µM. Besides, the MIC in the assay with B. su, in the assay on S. aureus and in the assay with E. coli (tolC) was under 40 µM each time.

As to `ON=C(Nc1ccccc1)c1ccc(F)c(C(F)(F)F)c1` [Example 16], the IC50 in assay [1] lay in the range of 10 to 50 µM. Moreover, the results for the MIC in the assay on B. su, with S. aureus and with E. coli (tolC) were 40 to 125 µM (≈ 11.9 to 37.3 µg/mL), over 125 µM and under 40 µM, respectively.

Regarding `ON=C(Nc1cccc(Cl)c1)c1ccc(Cl)c(C(F)(F)F)c1` [Example 64], the IC50 in assay [1] was under 10 µM. Further, the MIC with B. su, with S. aureus and in the assay with E. coli (tolC) was under 40 µM each time.

On to `ON=C(Nc1ccccc1)c1ccc(Cl)c(C(F)(F)F)c1` [Example 65], for which the concentration for half-maximal inhibition (IC50) in assay [1] is under 10 µM. Moreover, the MIC in the assay on B. su was 40 to 125 µM (≈ 12.6 to 39.3 µg/mL); in the assay with S. aureus, under 40 µM; in the assay on E. coli (tolC), under 40 µM.

For `N#Cc1cccc(NC(=NO)c2cccc(C(F)(F)F)c2)c1` [R′=3-CF3, R″=H, R′″=3-CN], the IC50 in assay [1] was over 50 µM. For the same molecule, the results for the MIC in the assay with B. su, with S. aureus and in the assay with E. coli (tolC) were over 125 µM, over 125 µM and 40 to 125 µM (≈ 12.2 to 38.2 µg/mL), respectively.

Turning to `ON=C(Nc1cccc(F)c1)c1cccc(C(F)(F)F)c1` [R′=3-CF3, R″=H, R′″=3-F], the half-maximal inhibitory concentration (IC50) in assay [1] fell in the range of 10 to 50 µM. The MIC in the assay on B. su is 40 to 125 µM (≈ 11.9 to 37.3 µg/mL); with S. aureus, 40 to 125 µM (≈ 11.9 to 37.3 µg/mL); in the assay on E. coli (tolC) it was under 40 µM.

As to `ON=C(Nc1cccc(Br)c1)c1cccc(C(F)(F)F)c1` [R′=3-CF3, R″=H, R′″=3-Br], in assay [1], the half-maximal inhibitory concentration (IC50) was in the range of 10 to 50 µM. Besides, the MIC with B. su is under 40 µM; in the assay on S. aureus it was 40 to 125 µM (≈ 14.4 to 44.9 µg/mL); in the assay on E. coli (tolC) it was under 40 µM.

Consider `ON=C(Nc1cccc(Cl)c1)c1cccc(OC(F)(F)F)c1` [R′=3-OCF3, R″=H, R′″=3-Cl], for which the half-inhibitory concentration (IC50) in assay [1] is 10 to 50 µM. Besides, the MIC was under 40 µM with B. su, 40 to 125 µM (≈ 13.2 to 41.3 µg/mL) in the assay on S. aureus and under 40 µM in the assay on E. coli (tolC).

Consider `ON=C(Nc1ccccc1)c1cc(C(F)(F)F)cc(C(F)(F)F)c1` [R′=3-CF3, R″=5-CF3, R′″=H], for which the IC50 in assay [1] is over 50 µM. Also, the MIC in the assay with B. su was 40 to 125 µM (≈ 13.9 to 43.5 µg/mL); with S. aureus, 40 to 125 µM (≈ 13.9 to 43.5 µg/mL); with E. coli (tolC) it was under 40 µM.

The IC50 is the concentration that gives 50% inhibition. A word on the MIC: it is the lowest concentration found to suppress growth.
